Measured values taken from patent US12544444B2, “Administration of tailored feedstock to increase antibiotic susceptibility” (U.S. Government, as represented by the Sec. of Army, c/o …, priority 2018, dated 2026).

Tested on: Clostridium acetobutylicum
Assay: antibiotic sensitivity test (OD600 after 24 hours in 96-well plate, anaerobic)
Format: cell-based, Clostridium acetobutylicum strain ATCC 824
Conditions: C. acetobutylicum given oxidized feedstock compared to glucose as feedstock; FIG. 2, after 24 hours
Protocol: Bacterial culture conditions and strains have been previously published. All strains and cultures were maintained or grown in an atmosphere of 5.0% H2, 5.0% CO2, and 90.0% N2. Clostridium acetobutylicum strain ATCC 824 was obtained from ATCC and cultured using company protocol at 37° C. into Clostridial growth medium or CGM containing 0.75 g KH2PO4, 0.75 g K2HPO4, 1.0 g NaCl, 0.017 g MnSO4.5H2O, 0.70 g MgSO4.7H2O, 0.01 g FeSO4.7H2O, 2.0 g 1-asparagine, 5.0 g yeast extract, 2.0 g (NH4)2SO4, and 0.5% final concentration of desired carbohydrate—D-glucose, D-galacturonic acid, D-gluconic acid—at pH 6.5. Active cultures from initial growth stock were added to potato glucose medium to be maintained and stored as a spore solution. Potato glucose medium or PGM contains per liter of H2O—150 g grated fresh potato, 10 g D-glucose, 0.5 g (NH4)SO4, and 3 g CaCO3. The medium was boiled for 1 hour and strained through gauze before sterilization and use for culture. […]
The protocol for antibiotic sensitivity test was performed as follows in anaerobic conditions: 200 μL of CGM medium containing either 0.5% D-galacturonate or D-glucose was aliquoted into a sterile Costar® 96-well polystyrene flat bottom plate in triplicate per test condition. […] The optical density of the cultures in the wells were measured at 600 nm via a commercially available plate reader.

Cc1ncc([N+](=O)[O-])n1CCO [metronidazole]
antibiotic (metronidazole) susceptibility increase: at least two-fold
